Experimental data taken from US20120128630A1, “1-(6 MEMBERS AZO-HETEROCYCLIC)-PYRROLIN-2-ONE COMPOUNDS AS INHIBITORS OF HEPATITIS C NS5B POLYMERASE, THE PHARAMACEUTICAL COMPOSITION THEREOF AND THEIR THERAPEUTIC USE” (priority 2009, published 2012).
Like-named read-outs stand apart in the source and are kept apart here.

What was measured:
HCV replicon Luc Neo ET = assay: Luc Neo ET Replicon assay; format: cell-based, Hepatitis C virus; conditions: Table 3, titled RdRp enzyme assay results, EC50_Replicon LucneoET, 72 hours with compound, luciferase
Method: Human Hepatoma Huh-7 cell line was maintained in DMEM/HAMF-12 supplemented with 10% SVF, 4 mM glutamine, […] Na pyruvate, 1% penistreptomycine. HCV replicon containing Huh-7 cell lines Huh-9.13 and Luc Neo ET (Reblikon) were maintained in DMEM supplemented with 10% SVF, 2 mM glutamine, and 1×NEAA, 100 U/ml penicillin, and 100 μg/ml streptomycine. Replicon cells were maintained in medium supplemented with 1 mg/ml G418 for replicon Huh-9.13 and 0.5 mg/ml for Luc Neo et replicon unless indicated otherwise. Huh-7 and HCV replicon cell lines were maintained at 37° C. and 5% CO2 in a humidified atmosphere. Cells were dissociated at sub confluence with trypsin EDTA 1×.
Replicon Luc Neo ET is a bicistronic expression constructs (Lohmann et al, 1999, Science 285, 110-113). In brief, the structural genes of the HCV genome were replaced by heterologous sequences; the gene encoding the neomycin phosphotransferase (NPT) and the internal ribosome entry site (IRES) of the encephalomyocarditis virus (EMCV). The bicistronic construct is therefore composed of the following elements: HCV-IRES nucleotides 1-389, the NPT gene, the EMCV-IRES directing translation of downstream HCV sequences from NS2 or NS3 up to the authentic 3′ end of the genome. HCV Polyprotein harbours the cell culture adaptive mutations E1202G, T1280I, K1846T. G418-resistance is only possible with cells containing high amounts of replicon.
Cells were dissociated the day before addition of compounds and seeded in 96 well-plates at a final concentration of 77 777.77 cells.ml^−1.well^−2 in 90 μl final volume of culture medium per well and were maintained at 37° C. and 5% CO2 in a humidified atmosphere for 24 hours. 10 μl of compounds to be tested were added 24 hours after seeding. Final concentration of DMSO was 1%. Cells were incubated in the presence of compounds for 72 hours after which expression of firefly luciferase reporter gene was quantified. Briefly, culture medium was removed and cells were lysed by addition of 100 μl of lysis buffer containing 125 mM Tris Phosphate ph 7.8, 10 mM EDTA, 5 mM DTT, 50% glycerol and 5% Triton. Plates were vortexed 10 min at 1300 rpm. Cell lysat was transferred in OpaqueWhite Assay 96 well Flat Bottom plates. 100 μl of luciferin solution 1× were added to each well. Luciferin solution contained 40 mM Tris Phosphate ph 7.8, 0.2 mM EDTA, 67 mM DTT, 2.14 mM MgCl2, 5.4 mM MgSO4, 4.7×10^−4 M luciferin, 5.3×10^−4 M ATP and 2.7×10^−4 M Acetyl co enzyme A. Luminescence was immediately measured with Berthold Microlumat Plus LB 96V luminometer with an integration of 0.5 sec Inhibition was calculated using the formula:
% inhibition=1−[(RLUsample−RLUbackground)/(RLUsignal−RLUbackground)]

HCV NS5B genotype 1b = biological target: T1, HCV NS5B genotype 1b (Hepatitis C virus genotype 1b, UniProt Q9WMX2); assay: 3D-SCREEN assay (NS5B 3D-Screen platform, luciferase reporter gene); format: cell-based
T1 construct: The protein was expressed with a 21 amino acid C-terminal deletion to remove transmembrane domain; expressed in transfected cells; host or cells: Huh-7
How it was run: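 Huh-7 cells transiently co-transfected with NS5BΔ21/Gal4-DBD, 3D-Sensor peptide I4/VP16 and firefly luciferase reporter. Compounds added 2 h after seeding, 1% DMSO final, 24 h incubation. Luciferase luminescence read; % inhibition relative to no-compound signal.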

[1] = EC50_3DS_NS5B, Table 2, titled Replicon assay results

SMILES	EC50 (HCV replicon Luc Neo ET; Hepatitis C virus, 72 h)	EC50 (HCV NS5B genotype 1b; [1])	also measured
Cc1ccc(N2C(=O)C(O)=C(C(=O)c3ccc(C(C)C)cc3)C2c2ccc(OC(F)(F)F)cc2)cn1 (stereo not shown) [Example 77, 3-hydroxy-4-(4-isopropyl-benzoyl)-1-(6-methyl-pyridin-3-yl)-5-(4-trifluoromethoxy-phenyl)-1,5-dihydro-pyrrol-2-one]	< 10000 nM	< 1000 nM	melting point: 214 to 218 °C
Cc1ccc(N2C(=O)C(O)=C(C(=O)c3ccc(C(F)(F)F)cc3)C2c2ccc(OC(F)(F)F)cc2)nn1 (stereo not shown) [Example 162, 3-hydroxy-1-(6-methyl-pyridazin-3-yl)-5-(4-trifluoromethoxy-phenyl)-4-(4-trifluoromethyl-benzoyl)-1,5-dihydro-pyrrol-2-one]	< 10000 nM	< 1000 nM	
CCOc1ccc(C2C(C(=O)c3ccc(C(C)C)cc3)=C(O)C(=O)N2c2ccc(C)nn2)cn1 (stereo not shown) [Example 155, 2-ethoxy-5-[4-hydroxy-3-(4-isopropyl-benzoyl)-1-(6-methyl-pyridazin-3-yl)-5-oxo-2,5-dihydro-1H-pyrrol-2-yl]-pyridinium; chloride]			EC50 (HCV replicon Luc Neo ET): < 1000 nM; EC50 (HCV NS5B genotype 1b; read-out: EC50_3DS_NS5B, Table 2, titled Replicon assay results): < 1000 nM
Cc1ccc(N2C(=O)C(O)=C(C(=O)c3ccc(C(C)C)cc3)C2c2ccc(C(F)(F)F)cn2)nn1 (stereo not shown) [Example 106, 3-hydroxy-4-(4-isopropyl-benzoyl)-1-(6-methyl-pyridazin-3-yl)-5-(5-trifluoromethyl-pyridin-2-yl)-1,5-dihydro-pyrrol-2-one]	< 10000 nM	< 10000 nM	
Cc1ccc(N2C(=O)C(O)=C(C(=O)c3ccc(OC(F)(F)F)cc3)C2c2ccc(C(C)C)cc2)cn1 (stereo not shown) [Example 94, 3-hydroxy-5-(4-isopropyl-phenyl)-1-(6-methyl-pyridin-3-yl)-4-(4-trifluoromethoxy-benzoyl)-1,5-dihydro-pyrrol-2-one]	< 10000 nM	< 10000 nM	
Cc1ccc(C(=O)C2=C(O)C(=O)N(c3ccccn3)C2c2ccc(C(C)(C)C)cc2)cc1 (stereo not shown) [Example 2, 5-(4-tert-butyl-phenyl)-3-hydroxy-4-(4-methyl-benzoyl)-1-pyridin-2-yl-1,5-dihydro-pyrrol-2-one]	< 10000 nM		EC50 (HCV NS5B genotype 1b; EC50_3DS_NS5B, Table 1, 3D-SCREEN assay results, Huh-7 cells, 24 hours with compound, firefly luciferase reporter): 9000 nM
CCOc1ccc(C2C(C(=O)c3ccc(C(C)C)cc3)=C(O)C(=O)N2c2ccc(C)nn2)cn1 (stereo not shown) [Example 110, 5-(6-ethoxy-pyridin-3-yl)-3-hydroxy-4-(4-isopropyl-benzoyl)-1-(6-methyl-pyridazin-3-yl)-1,5-dihydro-pyrrol-2-one]	< 1000 nM	< 1000 nM	
Cc1ccc(N2C(=O)C(O)=C(C(=O)c3ccc(C(C)C)cc3)C2c2ccc(C(C)(F)F)cc2)nn1 (stereo not shown) [Example 158, 5-[4-(1,1-difluoro-ethyl)phenyl]-3-hydroxy-4-(4-isopropyl-benzoyl)-1-(6-methyl-pyridazin-3-yl)-1,5-dihydro-pyrrol-2-one]	< 1000 nM	< 100 nM	
CC(C)c1ccc(C(=O)C2=C(O)C(=O)N(c3ccc(Cl)nn3)C2c2ccc(OC(F)(F)F)cc2)cc1 (stereo not shown) [Example 118, 1-(6-chloro-pyridazin-3-yl)-3-hydroxy-4-(4-isopropyl-benzoyl)-5-(4-trifluoromethoxy-phenyl)-1,5-dihydro-pyrrol-2-one]	< 1000 nM	< 1000 nM	
Cc1ccc(N2C(=O)C(NS(C)(=O)=O)=C(C(=O)c3ccc(C(C)C)cc3)C2c2ccc(OC(F)(F)F)cc2)nn1 (stereo not shown) [Example 149, N-[4-(4-isopropyl-benzoyl)-1-(6-methyl-pyridazin-3-yl)-2-oxo-5-(4-trifluoromethoxy-phenyl)-2,5-dihydro-1H-pyrrol-3-yl]-methanesulfonamide]	< 1000 nM	< 1000 nM	
Cc1ccc(N2C(=O)C(O)=C(C(=O)c3ccc(OC(C)C)cc3)C2c2ccc(OC(F)(F)F)cc2)nn1 (stereo not shown) [Example 115, 3-hydroxy-4-(4-isopropoxy-benzoyl)-1-(6-methyl-pyridazin-3-yl)-5-(4-trifluoromethoxy-phenyl)-1,5-dihydro-pyrrol-2-one]	< 10000 nM	< 10000 nM	
Cc1ccc(N2C(=O)C(O)=C(C(=O)c3ccc(C(C)C)cc3)[C@H]2c2ccc(C(F)(F)F)nc2)nn1 [Example 195, 3-hydroxy-4-(4-isopropyl-benzoyl)-1-(6-methyl-pyridazin-3-yl)-5(R)-(6-trifluoromethyl-pyridin-3-yl)-1,5-dihydro-pyrrol-2-one]	< 1000 nM	< 1000 nM	
CC(=O)OC1=C(C(=O)c2ccc(C(C)C)cc2)C(c2ccc(OC(F)(F)F)cc2)N(c2ccc(C)nn2)C1=O (stereo not shown) [Example 86, Acetic acid 4-(4-isopropyl-benzoyl)-1-(6-methyl-pyridazin-3-yl)-2-oxo-5-(4-trifluoromethoxy-phenyl)-2,5-dihydro-1H-pyrrol-3-yl ester]	< 1000 nM	< 100 nM	
Cc1ccc(N2C(=O)C(O)=C(C(=O)c3ccc(OC(F)(F)F)cc3)C2c2ccc(OC(C)C)nc2)nn1 (stereo not shown) [Example 169, 3-hydroxy-5-(6-isopropoxy-pyridin-3-yl)-1-(6-methyl-pyridazin-3-yl)-4-(4-trifluoromethoxy-benzoyl)-1,5-dihydro-pyrrol-2-one]	< 1000 nM	< 1000 nM	
Cc1ccc(N2C(=O)C(O)=C(C(=O)c3ccc(OC(F)(F)F)cc3)C2c2ccc(OC(F)(F)F)cc2)nn1 (stereo not shown) [Example 96, 3-hydroxy-1-(6-methyl-pyridazin-3-yl)-4-(4-trifluoromethoxy-benzoyl)-5-(4-trifluoromethoxy-phenyl)-1,5-dihydro-pyrrol-2-one]	< 1000 nM	< 1000 nM	
Cc1ccc(N2C(=O)C(O)=C(C(=O)c3ccc(C(C)C)cc3)[C@H]2c2ccc(C(C)(F)F)cc2)nn1 [Example 196, 5(R)-[4-(1,1-difluoro-ethyl)-phenyl]-3-hydroxy-4-(4-isopropyl-benzoyl)-1-(6-methyl-pyridazin-3-yl)-1,5-dihydro-pyrrol-2-one]	< 1000 nM	< 1000 nM	
Cc1ccc(N2C(=O)C(NS(C)(=O)=O)=C(C(=O)c3ccc(C(C)C)cc3)[C@H]2c2ccc(OC(F)(F)F)cc2)nn1 [Example 198, N-[4-(4-isopropyl-benzoyl)-1-(6-methyl-pyridazin-3-yl)-2-oxo-5(R)-(4-trifluoromethoxy-phenyl)-2,5-dihydro-1H-pyrrol-3-yl]-methanesulfonamide]	< 1000 nM	< 1000 nM	
Cc1ccc(N2C(=O)C(O)=C(C(=O)c3ccc(C(C)C)cc3)C2c2ccc(C(F)(F)F)nc2)nn1 (stereo not shown) [Example 98, 3-hydroxy-4-(4-isopropyl-benzoyl)-1-(6-methyl-pyridazin-3-yl)-5-(6-trifluoromethyl-pyridin-3-yl)-1,5-dihydro-pyrrol-2-one]	< 10000 nM	< 10000 nM	
Cc1ccc(N2C(=O)C(O)=C(C(=O)c3ccc(C(C)C)cc3)C2c2ccc(C(C)C)cn2)nn1 (stereo not shown) [Example 111, 3-Hydroxy-4-(4-isopropyl-benzoyl)-5-(5-isopropyl-pyridin-2-yl)-1-(6-methyl-pyridazin-3-yl)-1,5-dihydro-pyrrol-2-one]	< 10000 nM	< 10000 nM	
CCOc1ccc([C@@H]2C(C(=O)c3ccc(C(C)C)cc3)=C(O)C(=O)N2c2ccc(C)nn2)cn1 [Example 192, 5(R)-(6-ethoxy-pyridin-3-yl)-3-hydroxy-4-(4-isopropyl-benzoyl)-1-(6-methyl-pyridazin-3-yl)-1,5-dihydro-pyrrol-2-one]	< 1000 nM	< 1000 nM	
C#Cc1ccc(C2C(C(=O)c3ccc(C(C)C)cc3)=C(O)C(=O)N2c2ccc(C)nn2)cc1 (stereo not shown) [Example 137, 5-(4-ethynyl-phenyl)-3-hydroxy-4-(4-isopropyl-benzoyl)-1-(6-methyl-pyridazin-3-yl)-1,5-dihydro-pyrrol-2-one]	< 10000 nM	< 10000 nM	
